The values below are quoted from earlier work in patent US20210154335A1, “DYE AGGREGATES-CONTAINING NANOPARTICLES AND USES THEREOF” (BOARD OF REGENTS, THE UNIVERSITY OF TEXAS SYSTEM, priority 2019, published 2021).

For this data set the following is noted: in vivo.

Each structure is given as a SMILES string.

Take `CC1(C)C(/C=C/C=C/C=C/C=C2\N(CCCCS(=O)(=O)O)c3ccc4ccccc4c3C2(C)C)=[N+](CCCCS(=O)(=O)[O-])c2ccc3ccccc3c21` [ICG, indocyanine green]: the blood circulation half-life was 2 to 4 min.
